Experimental data from patent publication US20220249596A1, “PIC1 PEPTIDE COMPOSITIONS AND METHODS OF USE THEREOF FOR TREATMENT OF HYPOXIC ISCHEMIC ENCEPHALOPATHY” (REALTA HOLDINGS, LLC, priority 2019, published 2022).
No end group written: not given here.

Columns and labels:
Type in all cases: in vivo, rat
[1] = test system: C9; experiment: Immunofluorescence quantification of C9 in brain; settings: ipsilateral cortex and hippocampus, 48 hours, versus NT, P<0.05
Description: (§1) TUNEL/C1q staining was performed as follows. Five (5) μm paraffin-embedded coronal brain sections on slides were incubated (1 hour; 60° C.), deparaffinized with xylene, and rehydrated with ethanol (100%, 95%, 70%; RT). Endogenous peroxidase activity was blocked (0.3% H2O2/MeOH; 10 minutes; RT), and heat induced antigen retrieval was performed (when indicated) using 10 mM sodium citrate, pH 6.0. 10% normal serum (from the same species as the host of the secondary antibody) was used to block and to dilute antibodies. Samples were washed twice for 10 min each, in PBST between each step.
After blocking for one hour at room temperature, tissues were incubated with 1:300 goat anti-Iba1 (Abcam), 1:250 goat anti-GFAP (Abcam), 1:500 chicken anti-NeuN (Millipore, Billerica, Mass.), or 1:100 mouse anti-NeuN (Millipore) in host appropriate blocking serum overnight at 4° C. Primary antibodies were probed with 1:500 donkey anti-goat (Abcam), goat anti-chicken (Abcam), or goat anti-mouse (Abcam) AF 488 or 568 in appropriate blocking serum for one hour at room temperature. Tissues were blocked a second time with NGS for one hour at room temperature. […]

[2] = test system: apoptosis in cortex and hippocampus; experiment: TUNEL/DAPI/C1q staining of brain sections 48 hours after injury
Description: To assess the effect of PIC1 on cell death at 48 hours after the initial injury, TUNEL staining, alone or in combination with C1q staining, was utilized to measure DNA strand breaks that are generated during apoptosis.
as §1
For C1q/TUNEL co-staining, tissue was incubated with the TUNEL solution according to manufacturer's instructions (In Situ Cell Death Detection Kit, Roche Molecular Diagnostics, Pleasanton, Calif.), followed by blocking with NGS for one hour at room temperature. C1q was probed using 1:300 mouse anti-C1q (Abcam) in NGS for 30 min at 37° C., followed by incubation in 1:500 goat anti-mouse (Abcam) AF 568 for 30 min at 37° C. All samples were mounted with aqueous mounting media comprising 4′,6-diamidino-2-phenylindole (Vectashield antifade mounting medium with DAPI, Vector Laboratories, Burlingame, Calif.) and coverslipped.
Fluorescent images of the cortex were taken at 20× magnification using a digital camera (DP70, Olympus Center, Valley Forge, Pa.), mounted on a BX50 Olympus microscope. Adobe Photoshop CS5 was used to merge immunofluorescence images, and Image J (National Institutes of Health) was used for analysis.

[3] = test system: C5a; experiment: Systemic C5a level in plasma, fluorescent immunoassay; settings: 12 and 24 hours after initial insult, P<0.05; persisted to 48 hours
Description: The local and systemic effects of NT, HT and PIC1 treatment on the complement cascade were measured. CNS C1q levels and systemic C1q and C5a levels were measured using a fluorescent immunoassay.
Systemic C1q and C5a levels were measured as follows. 100 μl of 1:5 plasma in 1×PBS was added to the wells of a plate described above and incubated overnight at 4° C. The plates were washed 3 times with PBST and blocked with NDS or NGS for one hour. Samples were probed with either 1:50 goat anti-human C1q (Complement Technology) in NDS or 1:200 mouse anti-human C5a (Human Complement Component C5a DuoSet ELISA, R&D Systems, Inc., Minneapolis, Minn.) in NGS for one hour at RT. The wells were washed and 1:500 donkey anti-goat 488 (Life Technologies) in NDS or 1:500 goat anti-mouse AF 568 (Life Technologies) in NGS was added, and incubated for one hour at RT. The wells were washed and the plate read using a Synergy HT (BioTek). Systemic C3a levels in plasma (1:20 dilution) were measured using a standard ELISA, according to the manufacturer's instructions (Rat C3a ELISA Kit, TSZ ELISA, Waltham, Mass.).

[4] = test system: MPO (Myeloperoxidase); experiment: Myeloperoxidase expression in cortex (oxidant stress); settings: 48 hours after injury, versus NT animals, P<0.01
Description: (§2) After blocking for one hour at room temperature, tissues were incubated with 1:300 goat anti-Iba1 (Abcam), 1:250 goat anti-GFAP (Abcam), 1:500 chicken anti-NeuN (Millipore, Billerica, Mass.), or 1:100 mouse anti-NeuN (Millipore) in host appropriate blocking serum overnight at 4° C. Primary antibodies were probed with 1:500 donkey anti-goat (Abcam), goat anti-chicken (Abcam), or goat anti-mouse (Abcam) AF 488 or 568 in appropriate blocking serum for one hour at room temperature. Tissues were blocked a second time with NGS for one hour at room temperature. Samples were then probed with 1:300 mouse anti-C1q (Abcam), 1:300 rabbit anti-C9, 1:50 rabbit anti-MPO (Abcam), 1:200 rabbit anti-TMEM (Novus Bio, Centennial, Colo.), 1:100 rabbit anti-C3aR (Bioss), 1:100 Mouse anti-C5aR (Hycult), or 1:200 chicken anti-C3/C3a (Abcam) in NGS overnight at 4° C. and then with 1:500 goat anti-mouse, rabbit, or chicken (Abcam) AF 488 or 568 in NGS for one hour at room temperature.
To examine the effect of PIC1 treatment on oxidant stress, expression of the enzyme myeloperoxidase (MPO) was measured in the cortex of the brain. MPO is an enzyme from neutrophils that damages invading and host cells alike. MPO is one of the markers of oxidative stress after ischemic injury and is responsible for generating reactive oxygen species (hypochlorous acid and hydrogen peroxide). […]

[5] = test system: C3aR; experiment: Whole brain C3aR expression, Western blotting and immunofluorescence; settings: PIC1 group versus NT animals, P<0.05
Description: as §2
Without wishing to be bound by theory, C3a is generated at the convergence of all known complement activation pathways (i.e., the classical, alternate and lectin pathways). To investigate further, C3aR levels in the brain were measured by Western blotting and immunofluorescence (FIG. 5). Western blotting was performed as follows. […]

IALILEPICCQERAA-dPEG24 (cysteine pairing not given here) [PIC1]
C9 expression [1]: decreased expression | TUNEL positive cells (DNA fragmentation), cortex and hippocampus ([2]; 48 hours, versus NT (P=0.02) and HT (P=0.04)): significantly fewer | cell count ([2]; PIC1- versus HT-treated animals): no significant difference | nucleus size ([2]; versus NT (P=0.02) and HT (P=0.04)): significantly improved | nuclear density by DAPI staining ([2]; versus NT animals, P=0.01): markedly improved | C1q/TUNEL co-localization ([2]; versus NT animals, ipsilateral cortex): qualitative reduction | cell counts (stained nuclei) ([2]; versus NT, P=0.03): significantly improved | systemic C5a levels, NT animals relative to PIC1-treated animals [3]: significantly higher | decrease of MPO expression in brain [4]: 83% | whole brain C3aR expression [5]: significantly higher
